The record followed here is patent US7829589B2, “Sulfonamide compounds and uses thereof” (Elixir Pharmaceuticals, Inc., priority 2005, dated 2010).

Some results are limits rather than exact numbers.

GHS-R, sequence (Q92847 whole entry, species assumed): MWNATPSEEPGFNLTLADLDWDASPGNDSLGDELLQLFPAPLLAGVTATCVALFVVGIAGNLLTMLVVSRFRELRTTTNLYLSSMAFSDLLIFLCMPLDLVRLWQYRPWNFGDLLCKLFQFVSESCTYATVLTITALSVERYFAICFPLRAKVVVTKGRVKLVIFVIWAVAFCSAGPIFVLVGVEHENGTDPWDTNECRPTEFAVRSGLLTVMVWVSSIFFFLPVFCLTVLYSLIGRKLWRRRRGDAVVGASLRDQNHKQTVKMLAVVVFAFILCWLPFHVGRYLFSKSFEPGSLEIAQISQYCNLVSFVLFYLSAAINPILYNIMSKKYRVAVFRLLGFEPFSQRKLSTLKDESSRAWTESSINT

The assay addresses GHS-R (Homo sapiens, UniProt Q92847). Briefly: GHS-R antagonist activity (Ki) in a cell based assay. Summed up:
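Transfected COS-7 cells were labelled 24 h with [^3H]-myo-inositol and preincubated 30 min at 37 °C in HEPES buffer pH 7.4 with 10 mM LiCl, optionally with 1 U/ml adenosine deaminase. Compound was applied for 45 min at 37 °C. [^3H]-inositol phosphates were extracted with perchloric acid and isolated by anion-exchange resin.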
The molecule `CCN(CC)CCCS(=O)(=O)N[C@H](CCc1ccccc1)c1nc(Cc2ccccc2)no1` [Compound 116, 3-Diethylamino-propane-1-sulfonic acid [(R)-1-(3-benzyl-[1,2,4]oxadiazol-5-yl)-3-phenyl-propyl]-amide] gave a Ki of 100 to 500 nM. To `CCN(CC)CCCS(=O)(=O)N[C@H](CCc1ccccc1)c1nc(Cc2ccc(C(F)(F)F)cc2)no1` [Compound 117, 3-Diethylamino-propane-1-sulfonic acid {(R)-3-phenyl-1-[3-(4-trifluoromethyl-benzyl)-[1,2,4]oxadiazol-5-yl]-propyl}-amide] belongs less than 100 nM. The value for `CCN(CC)CCCS(=O)(=O)N[C@H](CCc1ccccc1)c1nc(-c2cccc3[nH]ccc23)n[nH]1` [Compound 118, 3-Diethylamino-propane-1-sulfonic acid {(R)-1-[5-(1H-indol-4-yl)-2H-[1,2,4]triazol-3-yl]-3-phenyl-propyl}-amide] was less than 100 nM.

The molecule `CCN(CC)CCCS(=O)(=O)N[C@H](Cc1ccccc1)c1nc(-c2ccc(OC)cc2)n[nH]1` [Compound 119, 3-Diethylamino-propane-1-sulfonic acid {(R)-1-[5-(4-methoxy-phenyl)-2H-[1,2,4]triazol-3-yl]-2-phenyl-ethyl}-amide] came in with a Ki of 100 to 500 nM. To `CCN(CC)CCCS(=O)(=O)N[C@H](CCc1ccccc1)c1nc(-c2ccc(O)cc2)n[nH]1` [Compound 120, 3-Diethylamino-propane-1-sulfonic acid {(R)-1-[5-(4-hydroxy-phenyl)-2H-[1,2,4]triazol-3-yl]-3-phenyl-propyl}-amide] belongs less than 100 nM; to `CCN(CC)CCCS(=O)(=O)N[C@H](CCc1ccccc1)c1nc(-c2cccc(O)c2)n[nH]1` [Compound 121, 3-Diethylamino-propane-1-sulfonic acid {(R)-1-[5-(3-hydroxy-phenyl)-2H-[1,2,4]triazol-3-yl]-3-phenyl-propyl}-amide], less than 100 nM; to `CCN(CC)CCCS(=O)(=O)N[C@H](CCc1ccccc1)c1nc(Cc2ccsc2)n[nH]1` [Compound 122, 3-Diethylamino-propane-1-sulfonic acid [(R)-3-phenyl-1-(5-thiophen-3-ylmethyl-2H-[1,2,4]triazol-3-yl)-propyl]-amide], less than 100 nM.

Consider `CCN(CC)CCCS(=O)(=O)N[C@H](CCc1ccccc1)c1nc(-c2cccc(SC)c2)n[nH]1` [Compound 123, 3-Diethylamino-propane-1-sulfonic acid {(R)-1-[5-(3-methylsulfanyl-phenyl)-2H-[1,2,4]triazol-3-yl]-3-phenyl-propyl}-amide], for which the Ki was less than 100 nM. The molecule `CCN(CC)CCCS(=O)(=O)N[C@H](CCc1ccccc1)c1nc(Cn2nnc3ccccc32)n[nH]1` [Compound 124, 3-Diethylamino-propane-1-sulfonic acid [(R)-1-(5-benzotriazol-1-ylmethyl-2H-[1,2,4]triazol-3-yl)-3-phenyl-propyl]-amide] showed an inhibition constant Ki of less than 100 nM. The molecule `CCN(CC)CCCS(=O)(=O)N[C@H](CCc1ccccc1)c1nc(-c2ccc(OC)c(C#N)c2)n[nH]1` [Compound 125, 3-Diethylamino-propane-1-sulfonic acid {(R)-1-[5-(3-cyano-4-methoxy-phenyl)-2H-[1,2,4]triazol-3-yl]-3-phenyl-propyl}-amide] came in with a Ki of less than 100 nM. To `CCN(CC)CCCS(=O)(=O)N[C@H](CCc1ccccc1)c1nc(-c2ccc(C#N)c(Cl)c2)n[nH]1` [Compound 126, 3-Diethylamino-propane-1-sulfonic acid {(R)-1-[5-(3-chloro-4-cyano-phenyl)-2H-[1,2,4]triazol-3-yl]-3-phenyl-propyl}-amide] belongs less than 100 nM; to `CCN(CC)CCCS(=O)(=O)N[C@H](CCc1ccccc1)c1nc(Cc2c[nH]c3ccccc23)n[nH]1` [Compound 127, 3-Diethylamino-propane-1-sulfonic acid {(R)-1-[5-(1H-indol-3-ylmethyl)-2H-[1,2,4]triazol-3-yl]-3phenyl-propyl}-amide], less than 100 nM; to `CCN(CC)CCCS(=O)(=O)N[C@H](CCc1ccccc1)c1nc(-c2ccc(F)c(C#N)c2)n[nH]1` [Compound 128, 3-Diethylamino-propane-1-sulfonic acid {(R)-1-[5-(3-cyano-4-fluoro-phenyl)-2H-[1,2,4]triazol-3-yl]-3-phenyl-propyl}-amide], less than 100 nM. The value for `CCN(CC)CCCS(=O)(=O)N[C@H](CCc1ccccc1)c1nc(-c2ccc3sccc3c2)n[nH]1` [Compound 129, 3-Diethylamino-propane-1-sulfonic acid [(R)-1-(5-benzo[b]thiophen-5-yl-2H-[1,2,4]triazol-3-yl)-3-phenyl-propyl]-amide] was less than 100 nM; that for `CCN(CC)CCCS(=O)(=O)N[C@H](CCc1ccccc1)c1nc(-c2ccc3occc3c2)n[nH]1` [Compound 130, 3-Diethylamino-propane-1-sulfonic acid [(R)-1-(5-benzofuran-5-yl-2H-[1,2,4]triazol-3-yl)-3-phenyl-propyl]-amide] was less than 100 nM. `CCN(CC)CCCS(=O)(=O)N[C@H](CCc1ccccc1)c1nc(-c2cn(C)cn2)n[nH]1` [Compound 131, 3-Diethylamino-propane-1-sulfonic acid {(R)-1-[5-(1-methyl-1H-imidazol-4-yl)-2H-[1,2,4]triazol-3-yl]-3-phenyl-propyl}-amide]: the Ki was less than 100 nM. The value for `CCN(CC)CCCS(=O)(=O)N[C@H](CCc1ccccc1)c1nc(Cc2cc(F)cc(F)c2)n[nH]1` [Compound 132, 3-Diethylamino-propane-1-sulfonic acid {(R)-1-[5-(3,5-difluoro-benzyl)-2H-[1,2,4]triazol-3-yl]-3-phenyl-propyl}-amide] was less than 100 nM; that for `CCN(CC)CCCS(=O)(=O)N[C@H](CCc1ccccc1)c1nc(Cc2nc(C)cs2)n[nH]1` [Compound 133, 3-Diethylamino-propane-1-sulfonic acid {(R)-1-[5-(4-methyl-3H-1lambda*4*-thiazol-2-ylmethyl)-2H-[1,2,4]triazol-3-yl]-3-phenyl-propyl}-amide] was less than 100 nM; that for `CCN(CC)CCCS(=O)(=O)N[C@H](CCc1ccccc1)c1nc(-c2ccc3nccn3c2)n[nH]1` [Compound 134, 3-Diethylamino-propane-1-sulfonic acid {(R)-1-[5-(1H-imidazo[1,2,-a]pyridin-6-yl)-2H-[1,2,4]triazol-3-yl]-3-phenyl-propyl}-amide] was 100 to 500 nM. The value for `CCN(CC)CCCS(=O)(=O)N[C@H](CCc1ccccc1)c1nc(-c2cncn2C)n[nH]1` [Compound 135] was less than 100 nM; that for `CCN(CC)CCCS(=O)(=O)N[C@H](CCc1ccccc1)c1nc(C2CNc3ccccc3O2)n[nH]1` (stereo partly drawn) [Compound 136, 3-Diethylamino-propane-1-sulfonic acid {(R)-1-[5-(3,4-dihydro-2H-benzo[1,4]oxazin-2-yl)-2H-[1,2,4]triazol-3-yl]-3-phenyl-propyl}-amide] was less than 100 nM. For the molecule `CCN(CC)CCCS(=O)(=O)N[C@H](CCc1ccccc1)c1nc(-c2csc(C)n2)n[nH]1` [Compound 137, 3-Diethylamino-propane-1-sulfonic acid {(R)-1-[5-(2-methyl-thiazol-4-yl)-2H-[1,2,4]triazol-3-yl]-3-phenyl-propyl}-amide], the inhibitory constant (Ki) is less than 100 nM. The value for `CCN(CC)CCCS(=O)(=O)N[C@H](CCc1ccccc1)c1nc(-c2ccc(OC)nc2)n[nH]1` [Compound 138, 3-Diethylamino-propane-1-sulfonic acid {(R)-1-[5-(6-methoxy-pyridin-3-yl)-2H-[1,2,4]triazol-3-yl]-3-phenyl-propyl}-amide] was less than 100 nM. The value for `CCN(CC)CCCS(=O)(=O)N[C@H](CCc1ccccc1)c1nc(C2CCCCC2)n[nH]1` [Compound 139, 3-Diethylamino-propane-1-sulfonic acid [(R)-1-(5-cyclohexyl-2H-[1,2,4]triazol-3-yl)-3-phenyl-propyl]-amide] was less than 100 nM. The value for `CCN(CC)CCCS(=O)(=O)N1CCC[C@H]1c1nc(Cc2ccc(Br)cc2)no1` [Compound 142, (S)-(3-{2-[3-(4-Bromo-benzyl)-[1,2,4]oxadiazol-5-yl]-pyrrolidine-1-sulfonyl}-propyl)-diethyl-amine] was 100 to 500 nM. As to `CCN(CC)CCCS(=O)(=O)N1CCC[C@H]1c1nc(-c2ccc(OC)cc2)no1` [Compound 143, (S)-Diethyl-(3-{2-[3-(4-methoxy-phenyl)-[1,2,4]oxadiazol-5-yl]-pyrrolidine-1-sulfonyl}-propyl)-amine], the Ki lay within 100 to 500 nM. Molecule `CCN(CC)CCCS(=O)(=O)N1CCC[C@@H]1c1nc(-c2ccc(OC)cc2)no1` [Compound 144, (R)-Diethyl-(3-{2-[3-(4-methoxy-phenyl)-[1,2,4]oxadiazol-5-yl]-pyrrolidine-1-sulfonyl}-propyl)-amine] gave a Ki of 100 to 500 nM. For the molecule `CCN(CC)CCCS(=O)(=O)N1CCC[C@@H]1c1nc(Cc2ccc(Br)cc2)no1` [Compound 145, (R)-(3-{2-[3-(4-Bromo-benzyl)-[1,2,4]oxadiazol-5-yl]-pyrrolidine-1-sulfonyl}-propyl)-diethyl-amine], the Ki lay in the range of 100 to 500 nM. The value for `CCN(CC)CCCS(=O)(=O)N[C@@H](C)c1nc(Cc2ccc(Br)cc2)no1` [Compound 146, (S)-3-Diethylamino-propane-1-sulfonic acid {1-[3-(4-bromo-benzyl)-[1,2,4]oxadiazol-5-yl]-ethyl}-amide] was 100 to 500 nM; that for `CCN(CC)CCCS(=O)(=O)N[C@H](C)c1nc(Cc2ccc(Br)cc2)no1` [Compound 147, (R)-3-Diethylamino-propane-1-sulfonic acid {1-[3-(4-bromo-benzyl)-[1,2,4]oxadiazol-5-yl]-ethyl}-amide] was 100 to 500 nM. `CCN(CC)CCCS(=O)(=O)NCc1nc(-c2ccc(OC)cc2)no1` [Compound 148, 3-Diethylamino-propane-1-sulfonic acid [3-(4-methoxy-phenyl)-[1,2,4]oxadiazol-5-ylmethyl]-amide] returned a Ki of 500 to 1000 nM.
